Results reported in patent publication US20250388623A1, “PEPTIDE INHIBITOR AND USE THEREOF” (CHENGDU BRILLIANT INSPIRATION BIOTHERAPEUTICS CO., LTD, priority 2022, published 2025).
pIC50: −log10 of the molar value. Bridge positions count the residues as written; N and C are the ends. Ends that are not written are not given here. Peptide text beside a SMILES is read from it.

Assays:
[1] = tested on: TSP-1-dependent TGF-β activation; assay: TSP-1-dependent TGF-β activation in PMA-differentiated THP-1 cells with 293-TGFβ Res reporter cells; format: cell-based; conditions: 100 μM polypeptide, 24 h; ratio to negative control group (1.00)
Method: In this Example, the inhibitory effects of the polypeptides on TSP-1-dependent TGF-β activation were detected using a model based on a high TSP-1 expressing cell. In the assay, THP-1 cells (American Typical Culture Collection, ATCC, TIB-20) were induced by phorbol ester (Phorbol 12-myristate 13-acetate, PMA) (Sigma, Catalog No. P1585) and differentiated into macrophage-like cells with distinct macrophage expression profiles.
The experiment was performed as follows: THP-1 cells were inoculated in a 96-well plate, and treated with 300 nM PMA for differentiation and adherence to form macrophage-like cells. 100 μM polypeptide was added (For the negative control group, an equal volume of PBS (the solvent for the polypeptide) was added, while the positive control group received an equal concentration of the polypeptide shown in SEQ ID NO: 50.) The cells were treated for 24 hours, and then a 293 reporter cell strain, 293-TGFβ Res cell strain (novoprotein, Catalog No. XCC03-1), was added for detecting TGF-β activity, and co-cultivated for 24 hours. Bio-Lite Luciferase Assay lysate comprising fluorescent substrate (Vazyme, Catalog No. DD1201-01) was added, and the fluorescent intensity was detected using a multifunctional microplate reader (TECAN, model Infinite 200 Pro). The inhibitory effect of the polypeptide on TGF-β activation was assessed by calculating the ratio of the fluorescence signal from the polypeptide-treated groups to that of the negative control group.

active TGF-β = assay: Active TGF-β level in lung tissue, bleomycin (BLM) mouse lung fibrosis model; format: in vivo; conditions: single intratracheal dose 3 mg/kg on Day 7, lung 24 h later, BLM model group = 100.00
Text: This Example was to evaluate the inhibitory effect of polypeptides on active TGF-β level during the progression of fibrotic disease. In this Example, a mouse lung fibrosis model induced by bleomycin (BLM) was used. The BLM animal model offers advantages, including a close mimicry of the pathological features of the primary disease, ease of use, and good reproducibility. It is the most representative model for studying the mechanisms of fibrosis and is recommended for evaluating drug efficacy.
In this Example, 6 to 8-week-old male C57/6J mice weighing 18-20 g were used as subjects for the study. The experimental animals were randomized into groups, 8 animals in each group, and the expressions of pro-fibrotic factors were detected at the endpoint of the experiment (Day 8) in this model. In this example, an aerosol intratracheal metered dosing applicator (Yuyan, model YAN30012) was utilized for intratracheal administration during the modeling and drug delivery processes. The dosing was performed as follows (An Official American Thoracic Society Workshop Report: Use of Animal Models for the Preclinical Assessment of Potential Therapies for Pulmonary Fibrosis, Am J Respir Cell Mol Biol Vol 56, Iss 5, pp 667-679, May 2017): The experimental animals were anesthetized with aerosolized isoflurane (RWD, lot no. 22041701) using a small animal anesthesia machine (RWD, model R500IE). Animals in the appropriate anesthetic state were positioned supine with heads facing up and bodies tilted on an operating platform (tilted at approximately) 60°, secured by their incisors. The practitioner gently lifted the tongue with tissue forceps in the right hand, pushing it outward and upward to open the animal's lower jaw. Holding the laryngoscope (Yuyan, model SR310-RW) in the left hand, the practitioner slid its anterior leaf-shaped blade along the midline of the tongue into the oral cavity until reaching the glottis, gently pressing the body and root of the tongue upward. The needle of the drug applicator was then inserted through the mouth into the glottis alongside the laryngoscope, and 50 μL of liquid was quickly injected. On the day of modeling (Day 1), the experimental animals were randomly assigned to groups and administered a 0.7 USP/kg dose of bleomycin solution (HanHui Pharmaceutical, Batch No. 20080511) via the tracheal route to induce the model. On Day 7, each peptide-treated group received a single intratracheal dose of 50 μL peptide drug (at a dosage of 3 mg/kg), while the model group was given an equal volume of solvent (saline, Kelong, Batch No. L221062501) as a control. Twenty-four hours after drug administration, the animals were dissected to collect lung tissue, which was ground in liquid nitrogen to extract total protein from the lung tissue. The active TGF-β content in the lung tissue of mice from each group was measured using the TGF-β ELISA kit (BOSTER, catalog number EK0515). The ratio of active TGF-β content between the peptide-treated group and the model group was calculated to evaluate the effect of the peptide on active TGF-β level.

P-Smad2/3 = P-Smad2/3 content in lung tissue, BLM mouse fibrosis model; format: in vivo; conditions: single intratracheal dose 3 mg/kg on Day 7, lung 24 h later, BLM model group = 100.00
Text: This example aimed to evaluate the inhibitory effect of polypeptides on the TGF-β downstream signaling pathway during fibrosis progression. TGF-β intracellular signaling relies on the phosphorylation events of Smad family proteins. The increase in Smad2/3 phosphorylation levels is an important indicator that signal transduction has occurred in the TGF-β signaling pathway.
In this example, 6- to 8-week-old male C57/6J mice weighing 18-20 g were used as subjects for the study. The experimental animals were randomized into groups, eight animals in each group. In this example, intratracheal administration was performed using an aerosol intratracheal metered dosing applicator during both the modeling and drug delivery processes, as described in Example 4. On the day of modeling (Day 1), the experimental animals were randomly assigned to groups and administered a 0.7 USP/kg dose of bleomycin solution (HanHui Pharmaceutical, Batch No. 20080511) via the tracheal route to induce the model. On Day 7, each peptide-treated group received a single intratracheal dose of peptide drug at a dosage of 3 mg/kg, while the BLM model group was given an equal volume of solvent (saline) as a control. Twenty-four hours after drug administration, the animals were dissected, and the lung tissues were collected and frozen in liquid nitrogen for future use. Total protein from the lung tissue was extracted after grinding the tissue in liquid nitrogen, and the total P-Smad2/3 content in the tissue was measured by using P-Smad2/3 ELISA kit (CST, Catalog No. 12001C). The ratio of the P-Smad2/3 content between the peptide-treated group and the model group was calculated to evaluate the effect of the peptide on TGFβ signaling.

[2] = target: T1, binding of TSP-1 protein to CD36, a TSP-1 receptor protein (Homo sapiens, UniProt P07996); assay: ELISA: blocking of CD36 binding to TSP-1 protein; conditions: for inhibition at 100 µM: 3 h, read-out: Blocking rate (Mean, %); for inhibition at 100 µM / Blocking rate (Mean, %): 100 μM polypeptide, 0.25 μg/mL Fc-tagged CD36, blocking of CD36 binding to TSP-1
T1 construct: purchased novoprotein (TSP-1); R&D Systems (Fc-tagged CD36) CU45 (TSP-1); 1955-CD-050 (CD36-Fc)
Method: ELISA assay was performed to detect the ability of the polypeptides to block the binding of TSP-1 protein to CD36, a TSP-1 receptor protein. TSP-1 protein (novoprotein, Catalog No. CU45) was diluted to 2 μg/mL using 100 mM carbonate buffer and added to sample wells (100 μL/well) of a 96-well ELISA plate (Thermo, Catalog No. 437111), and incubated overnight at 4° C.; after washing the plate twice using 1×PBST wash solution, 200 μL of 1.5% BSA (Sigma, Catalog No. B2064) was added to each well, and incubated at 37° C. for 2 h; after washing the plate 3 times using 1×PBST wash solution, the analytes were added (100 μL/well, 3 replicate wells; for the control group, 0.25 μg/mL of Fc-tagged CD36 protein (R&D Systems, Catalog No. 1955-CD-050); and for the polypeptide-treated groups, a mixture containing Fc-tagged CD36 protein and polypeptide at final concentrations of 0.25 μg/mL and 100 μM, respectively), and incubated at 37° C. for 3 h. After washing the plate 5 times using 1×PBST wash solution, a 1:500 dilution solution of FITC-labeled anti-Fc-tagged antibody (Beyotime, Catalog No. A0556) was added, and incubated for 1 h at 37° C.; after washing the plate 5 times using 1×PBST wash solution, a multifunctional ELISA instrument (TECAN, model: Infinite 200 Pro) was used to detect the intensity of FITC fluorescence signal in each sample well. The ability of the polypeptides to block CD36 binding to TSP-1 protein (Table 2-1) was assessed by calculating the ratio of the fluorescence signal from the polypeptide-treated groups to that of the control group, allowing for the determination of the blocking rate of the polypeptides in inhibiting CD36 binding to TSP-1 protein, i.e., (fluorescence signal of the control group-fluorescence signal of the polypeptide-treated group)/fluorescence signal of the control group×100%. Based on the blocking rate results obtained at the single concentration and on the polypeptide molecule properties, the preferred polypeptide molecules were assayed for concentration dependence (at 0 μM, 0.5 μM, 1 μM, 5 μM, 10 μM, and 100 μM), and IC50 values of the polypeptides for blocking CD36 binding to TSP-1 protein were determined to further assess the abilities of the preferred polypeptide molecules to block the binding of CD36 to TSP-1 (Table 2-2).

T1 sequence (P07996 19-1170): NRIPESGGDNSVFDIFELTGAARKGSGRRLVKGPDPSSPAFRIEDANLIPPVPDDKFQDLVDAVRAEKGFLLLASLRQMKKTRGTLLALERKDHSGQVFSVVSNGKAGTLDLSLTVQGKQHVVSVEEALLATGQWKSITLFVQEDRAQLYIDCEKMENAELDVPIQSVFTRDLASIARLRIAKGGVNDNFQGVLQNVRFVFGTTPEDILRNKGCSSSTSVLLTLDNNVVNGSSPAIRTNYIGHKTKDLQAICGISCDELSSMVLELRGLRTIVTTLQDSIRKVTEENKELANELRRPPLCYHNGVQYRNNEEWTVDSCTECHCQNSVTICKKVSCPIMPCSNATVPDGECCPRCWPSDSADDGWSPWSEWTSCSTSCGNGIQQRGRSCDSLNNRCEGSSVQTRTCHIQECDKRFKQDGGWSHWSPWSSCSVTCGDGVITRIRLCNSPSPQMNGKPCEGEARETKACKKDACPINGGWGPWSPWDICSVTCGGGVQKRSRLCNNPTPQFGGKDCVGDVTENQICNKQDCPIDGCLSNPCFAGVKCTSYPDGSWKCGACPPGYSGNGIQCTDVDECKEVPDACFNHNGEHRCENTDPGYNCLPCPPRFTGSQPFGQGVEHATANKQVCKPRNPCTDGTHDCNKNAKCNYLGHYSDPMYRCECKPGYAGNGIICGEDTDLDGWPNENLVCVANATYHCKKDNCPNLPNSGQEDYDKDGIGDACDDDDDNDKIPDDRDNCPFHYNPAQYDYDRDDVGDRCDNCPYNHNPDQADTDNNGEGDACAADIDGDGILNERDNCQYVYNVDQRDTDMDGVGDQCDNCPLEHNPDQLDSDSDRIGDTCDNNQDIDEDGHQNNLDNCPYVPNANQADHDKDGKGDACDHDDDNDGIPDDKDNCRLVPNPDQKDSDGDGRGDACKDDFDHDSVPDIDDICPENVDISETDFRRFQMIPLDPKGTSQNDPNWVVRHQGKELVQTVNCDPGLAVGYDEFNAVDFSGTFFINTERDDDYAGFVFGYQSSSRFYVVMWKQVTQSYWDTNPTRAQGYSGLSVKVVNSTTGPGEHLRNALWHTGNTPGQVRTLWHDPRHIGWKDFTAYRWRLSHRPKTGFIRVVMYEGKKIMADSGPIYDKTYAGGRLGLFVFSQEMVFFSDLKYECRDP

Row | Molecule | inhibition at 100 µM [2] | pIC50 ([2]; concentrations 0-100 μM) | Blocking rate (Mean, %) [2] | Mean (relative fluorescence intensity) [1] | active TGF-β content in lung tissue, ratio to model group, Mean(%) (active TGF-β; 3 mg/kg) | P-Smad2/3 content in lung tissue, ratio to model group, Mean(%) (P-Smad2/3; 3 mg/kg) | active TGF-β content in lung tissue, ratio to model group, Mean(%) (active TGF-β) | P-Smad2/3 content in lung tissue, ratio to model group, Mean(%) (P-Smad2/3)
1 | C[C@@H]1NC(=O)[C@H](CC(=O)O)NC(=O)[C@H](CCC(N)=O)NC(=O)[C@H]([C@@H](C)O)NC(=O)[C@H](CC(N)=O)NC(=O)[C@H](CC(=O)O)NC(=O)[C@H](CCC(=O)O)NC1=O [SEQ ID NO: 45, cyclo[Gln-Asp-Ala-Glu-Asp-Asn-Thr]] (cyclo(AEDNTQD)) | – | – | – | 0.52 | 81.10% | 82.42% | – | –
2 | Ac-TQDAEDNTAS-NH2 [SEQ ID NO: 24, Ac-Thr-Gln-Asp-Ala-Glu-Asp-Asn-Thr-Ala-Ser-NH2] | 32.6% | 4.97 | – | 0.57 | – | – | 76.35% | 89.89%
3 | Ac-TQDPEDN-NH2 [SEQ ID NO: 14, Ac-Thr-Gln-Asp-Pro-Glu-Asp-Asn-NH2] | 27.9% | – | – | 0.70 | – | – | 92.49% | 87.39%
4 | Ac-Thr-Gln-Asp-Ala-Glu-Asp-Leu-NH2 (Ac-TQDAEDL-NH2) [SEQ ID NO: 12] | – | – | 18.39% | – | – | – | 81.77% | 90.48%
5 | Ac-Thr-Glu-Asp-Ala-Glu-Asp-Asn-NH2 (Ac-TEDAEDN-NH2) [SEQ ID NO: 09] | – | – | 15.87% | – | – | – | 72.26% | 89.41%
6 | Thr-Gln-cyclo[Asp-Ala-Glu-Asp-Asn-Lys] (TQDAEDNK; lactam 3-8) [SEQ ID NO: 42] | – | – | 25.68% | – | – | – | 80.59% | 85.16%

The next lines start with results.

Row | inhibition at 100 µM [2] | pIC50 ([2]; concentrations 0-100 μM) | Blocking rate (Mean, %) [2] | Molecule | Mean (relative fluorescence intensity) [1] | active TGF-β content in lung tissue, ratio to model group, Mean(%) (active TGF-β; 3 mg/kg) | P-Smad2/3 content in lung tissue, ratio to model group, Mean(%) (P-Smad2/3; 3 mg/kg) | active TGF-β content in lung tissue, ratio to model group, Mean(%) (active TGF-β) | P-Smad2/3 content in lung tissue, ratio to model group, Mean(%) (P-Smad2/3)
7 | 23.1% | – | – | Ac-TQDAEDNTVSFLQ-NH2 [SEQ ID NO: 36, Ac-Thr-Gln-Asp-Ala-Glu-Asp-Asn-Thr-Val-Ser-Phe-Leu-Gln-NH2] | 0.83 | – | – | 77.42% | 79.00%
8 | – | – | 19.10% | Ac-Thr-Gln-Asp-Pro-Ala-Glu-Asp-NH2 (Ac-TQDPAED-NH2) [SEQ ID NO: 47] | – | – | – | 83.78% | 93.25%
9 | – | – | 28.65% | cyclo[Thr-Gln-Asp-Pro-Glu-Asp-Asn] (TQDPEDN; cyclic peptide; MISC_FEATURE - head-to-tail backbone cyclization) [SEQ ID NO: 41] | – | – | – | 74.12% | 81.44%
